# Results taken from BindingDB's records for doi:10.1074/jbc.M114.558353 (Harvard School of Public Health, 2014).
# Key:
# [1] = molecular target: T1, Dihydroorotate dehydrogenase (quinone), mitochondrial (Plasmodium falciparum (isolate 3D7), UniProt Q08210); assay: DHODH Biochemical Assay
# T1 sequence (Q08210 whole entry): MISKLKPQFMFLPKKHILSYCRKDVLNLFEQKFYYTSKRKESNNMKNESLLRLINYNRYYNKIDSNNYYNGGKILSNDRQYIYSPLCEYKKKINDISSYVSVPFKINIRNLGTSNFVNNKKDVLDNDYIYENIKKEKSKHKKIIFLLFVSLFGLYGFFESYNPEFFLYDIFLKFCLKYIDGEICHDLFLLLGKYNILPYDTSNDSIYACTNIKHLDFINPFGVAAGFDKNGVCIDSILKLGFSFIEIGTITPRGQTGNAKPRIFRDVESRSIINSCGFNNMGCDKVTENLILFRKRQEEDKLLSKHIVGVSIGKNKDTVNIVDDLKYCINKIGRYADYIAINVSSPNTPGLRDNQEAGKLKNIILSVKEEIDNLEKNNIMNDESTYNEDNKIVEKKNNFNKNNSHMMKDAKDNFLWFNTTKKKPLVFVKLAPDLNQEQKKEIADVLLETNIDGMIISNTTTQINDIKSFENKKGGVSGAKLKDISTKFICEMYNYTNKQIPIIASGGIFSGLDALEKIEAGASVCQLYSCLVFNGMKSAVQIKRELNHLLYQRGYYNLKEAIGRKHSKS
# [2] = molecular target: Dihydroorotate dehydrogenase (quinone), mitochondrial (Homo sapiens, UniProt Q02127); assay: DHODH Biochemical Assay
# Chain of Dihydroorotate dehydrogenase (quinone), mitochondrial (Homo sapiens, UniProt Q02127) (Q02127 whole entry): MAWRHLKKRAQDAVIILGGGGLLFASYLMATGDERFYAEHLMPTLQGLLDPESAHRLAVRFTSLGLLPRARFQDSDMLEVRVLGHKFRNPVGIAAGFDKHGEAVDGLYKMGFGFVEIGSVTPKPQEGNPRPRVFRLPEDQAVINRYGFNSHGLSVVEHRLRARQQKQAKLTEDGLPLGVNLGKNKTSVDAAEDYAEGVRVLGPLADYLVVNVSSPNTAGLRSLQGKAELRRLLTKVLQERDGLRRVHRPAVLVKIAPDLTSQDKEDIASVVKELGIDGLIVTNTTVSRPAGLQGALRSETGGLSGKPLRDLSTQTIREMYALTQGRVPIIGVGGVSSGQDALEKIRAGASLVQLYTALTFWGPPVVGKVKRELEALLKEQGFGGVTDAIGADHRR
IC50 [1],IC50 [2],SMILES
0.08 µM,> 30 µM,Cc1nc2c(C#N)cccc2n1-c1ccc(C(=O)NC2CC2)s1
1.7 µM,> 30 µM,CCSc1nnc(C2CCCN(CC(=O)Nc3cc(C(F)(F)F)ccc3Cl)C2)n1CC (stereo not drawn) [GSK3]
3.5 µM,3.8 µM,Cc1nnc2c3ccccc3c(N3CCc4ccccc4C3)nn12 [IDI-6253]
13.5 µM,> 30 µM,CCOc1cccc(=O)c2c(C)n(Cc3ccc(Cl)cc3)c(C)c12 [IDI-6273]
